For one molecule, IC50 results are on record in PubChem BioAssay AID602305 (The Scripps Research Institute Molecular Screening Center, 2012).

For the test, the system named is cell line, cAMP TR-FRET counterscreen, inhibition. Kind of test: dose response, counter-screen, cell-based (AID 602305).

The source made the active and inactive calls. The rule behind the calls is not given here.

Usually IC50 stands for the point on the concentration scale where inhibition reaches its midpoint. Regarding `CCOP(=O)(CCP(=O)(OCC)OCC)OCC.C[CH2][Sn]([Cl])([Cl])[CH2]C`, the IC50 was > 64.5 µM (inactive).
